According to patent US10501479B2, “Benzenesulfonyl-asymmetric ureas and medical uses thereof” (HELSINN HEALTHCARE SA, priority 2016, dated 2019):
Read-outs that look alike come from different tables or passages of the source.

Columns and labels:
[1] = Metabolic stability in human liver microsomes; assay type: in vitro ADME
Outline: (§1)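 Compound incubated with human, dog, rat or mouse liver microsomes in 100 mM potassium phosphate, pH 7.4, at 37 °C. Reaction started with an NADPH regenerating system. Samples quenched at 0, 10, 30 and 90 min, and remaining compound measured by LC-MS/MS.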

[2] = Plasma protein binding (PPB), human; assay type: in vitro ADME; details: read-out: PPB (H) (converted)
[3] = biological target: T1, GHSR-1a (HEK293/GHSR1a cell line) (Homo sapiens, UniProt Q92847); test: Ghrelin agonist potency (EC50) with calcium FLIPR assay; assay type: cell-based; details: HEK293/GHSR1a, read-out: Activity EC50/EMax: EC50 (ghrelin agonist potency)
T1 construct: expressed in transfected cells; host or cells: HEK293/GHSR1a cell line
Outline: (§2)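 HEK293/GHSR1a cells, seeded 24 hr ahead and loaded with calcium dye 30-60 min, were read by FLIPR fluorescence for 2 min after addition at t=20 sec. Agonism: compound alone, EC50 from dose-response. Antagonism: compound plus 10 nM ghrelin, IC50 from reduction of ghrelin response.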

[4] = biological target: T2, recombinant human ghrelin receptor (HEK293/GRLN) (Homo sapiens, UniProt Q92847); test: Ghrelin inverse agonist potency (EC50) with IP-1 (IP-One HTRF) assay; assay type: cell-based; details: IP-1 assay
T2 construct: expressed in transfected cells
Outline: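 HEK293/GRLN cells were seeded 18-22 hours before the test, then exposed to compound in stimulation buffer for 1 hour at 37° C, 5% CO2. IP-1 was detected by IP-One HTRF (IP1-d2 plus Tb-cryptate, 1 hour RT), reading 620 and 665 nm; the inverse agonist EC50 was derived from this.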

[5] = biological target: T1, GHSR-1a (HEK293/GHSR1a cell line); test: Ghrelin antagonist potency (IC50) with calcium FLIPR assay, ghrelin 10 nM; assay type: cell-based
Outline: as §2

[6] = Plasma protein binding (PPB), mouse; assay type: in vitro ADME
[7] = Metabolic stability in mouse liver microsomes; assay type: in vitro ADME
Outline: as §1

[8] = Metabolic stability in rat liver microsomes; assay type: in vitro ADME
Method: (§3) Metabolic Stability Study
(§4) The metabolic stability of compounds in human, dog, rat and mouse liver microsomes was performed according the experimental conditions reported below:
(§5) • a) Prepare the following 5 stock solutions: • 1. Test compound stock solutions: dilute 10 mM solution of dextromethorphan (Dtr) in DMSO, 10 mM solution of diphenhydramine (DPA) in DMSO, 10 mM solution of omeprazole (Ome) in DMSO, 10 mM solution of verapamil (Ver) in DMSO, and 10 mM of an inverse agonist compound in DMSO to 0.25 mM solution each with acetonitrile/water (70/30). • 2. Buffer: 100 mM potassium phosphate Buffer (PBS) at pH 7.4 • 3. Liver microsomes (20 mg/ml): Thaw in 37° C. water bath quickly • 4. 2000 μL: of NADPH regenerating system (1.3 mM). Place this system on ice before use:
(§6) • 5. […] The test compound concentration in the wells, measured by LC-MS/MS, represents the concentration at time=0. • f) To determine the test compound concentration when t≠0, pre-incubate the NADPH regenerating system and the incubation plate containing the remaining 320 μL of incubation mixture (microsomes protein and test compound) for 5 minutes at 37° C. • g) Start the incubation reaction by adding 80 μL NADPH regenerating system to each well containing the remaining 320 μL incubation mixture. • h) After 10 min., 30 min., and 90 min. of incubation at 37° C., transfer 100 μL of the incubation mixture (microsomes protein, test compound, and NADPH) into the wells of a stop plate pre-filled with 300 μL of the cold quench solution. Shake well. • i) Centrifuge the stop plate at 5000×g for 10 minutes. Collect and dilute the supernatant 3 times with distilled water. Sample and analyze the test compound concentration for all the wells by LC-MS/MS. Animal PK Studies via i.v. (intravenous), p.o. (orally) and s.c. (subcutaneous) administrations

[9] = Metabolic stability in dog liver microsomes; assay type: in vitro ADME
Method: as §3, §4, §5, §6

[10] = Animal PK study in mouse via i.v., p.o. and s.c. administration; assay type: in vivo
Outline: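 Single i.v. (tail vein), s.c. (neck scruff) or p.o. (gavage) dose to mice or rats; oral vehicle 1–5% DMSO/0.5% methylcellulose, i.v./s.c. vehicle 1–5% DMSO in 20% HP-β-cyclodextrin. Plasma sampled 0.083 (i.v./s.c.) or 0.25 to 24 h, analyzed by LC-MS/MS.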

[11] = HEK293/GRLN, read-out: Activity EC50 (ghrelin inverse agonist potency)
[12] = HEK293/GHSR1a, ghrelin 10 nM, read-out: Activity IC50 (ghrelin antagonist potency)
[13] = inverse agonist potency, read-out: EC50 (Activity)
[14] = ghrelin antagonist potency, read-out: IC50 (Activity)

T2 sequence (Q92847 whole entry): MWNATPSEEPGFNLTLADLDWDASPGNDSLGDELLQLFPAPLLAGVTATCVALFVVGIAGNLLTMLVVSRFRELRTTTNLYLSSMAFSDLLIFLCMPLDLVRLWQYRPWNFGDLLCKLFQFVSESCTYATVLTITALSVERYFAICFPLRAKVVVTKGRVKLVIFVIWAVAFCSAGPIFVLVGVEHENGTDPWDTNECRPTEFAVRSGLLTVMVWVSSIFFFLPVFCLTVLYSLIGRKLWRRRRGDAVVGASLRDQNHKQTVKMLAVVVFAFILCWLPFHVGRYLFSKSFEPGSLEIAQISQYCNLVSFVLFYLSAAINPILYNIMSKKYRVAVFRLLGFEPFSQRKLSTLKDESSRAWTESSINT
T1 sequence (Q92847 whole entry): as above

In the case of COc1cc(S(=O)(=O)Cc2ccc3c(c2)CNC3)ccc1NC(=O)NC(C)c1cccc2ccccc12.O=C(O)C(F)(F)F (centres unmarked) [H1419, 1-(4-((isoindolin-5-ylmethyl)sulfonyl)-2-methoxyphenyl)-3-(1-(naphthalen-1-yl)ethyl)urea], the “Metabolic Stability Study H = human” value [1] is reported as 33.1 µL/min/mg, the fraction unbound [2] is reported as 0.0041 and the EC50 [3] is reported as > 30 µM. For the same compound, the EC50 [4, 11] was 0.5 nM, the IC50 [5, 12] was 4.4 nM and the fraction unbound [6] was 0.0031. The “Metabolic Stability Study M = mouse” value [7] was 45.1 µL/min/mg.
With C[C@@H](NC(=O)Nc1ccc(S(=O)(=O)Cc2ccc3c(c2)CNC3)cc1)c1ccccc1 [H1214, (R)-1-(4-((isoindolin-5-ylmethyl)sulfonyl)phenyl)-3-(1-phenylethyl)urea] the “Metabolic Stability Study H = human” value [1] was 16.6 µL/min/mg, the “Metabolic Stability Study R = rat” value [8] was 18 µL/min/mg and the EC50 [4, 13] was 147 nM. For the same compound, the IC50 [5, 14] was 278 nM, the “Metabolic Stability Study D = dog” value [9] was < 10 µL/min/mg and the “Metabolic Stability Study M = mouse” value [7] was 21.4 µL/min/mg.
In the case of COc1cc(S(=O)(=O)Cc2ccc3c(c2)CNC3)ccc1NC(=O)NC(C)c1ccccc1F.O=C(O)C(F)(F)F (centres unmarked) [H1420, 1-(1-(2-fluorophenyl)ethyl)-3-(4-((isoindolin-5-ylmethyl)sulfonyl)-2-methoxyphenyl)urea], the “Metabolic Stability Study H = human” value [1] is reported as 17.4 µL/min/mg, the fraction unbound [2] is reported as 0.028 and the EC50 [3] is reported as > 30 µM. For the same compound, the EC50 [4, 11] was 1 nM, the IC50 [5, 12] was 22 nM and the fraction unbound [6] was 0.0461. The “Metabolic Stability Study M = mouse” value [7] was 50.6 µL/min/mg.
For CC(NC(=O)Nc1ccc(S(=O)(=O)Cc2ccc3c(c2)CNC3)cc1)c1ccccc1Cl.Cl (centres unmarked) [H1261, 1-(1-(2-chlorophenyl)ethyl)-3-(4-((isoindolin-5-ylmethyl)sulfonyl)phenyl)urea], the “Metabolic Stability Study H = human” value [1] was 48.8 µL/min/mg, the fraction unbound [2] was 0.045 and the EC50 [3] was > 30 µM. For the same compound, the EC50 [4, 11] was 2.2 nM, the IC50 [5, 12] was 1.57 nM and the fraction unbound [6] was 0.019. The “Metabolic Stability Study M = mouse” value [7] was 23 µL/min/mg.
In the case of C[C@H](NC(=O)Nc1ccc(S(=O)(=O)Nc2ccc(CC(C)(C)N)cc2)cc1)c1cccc(Cl)c1Cl.Cl [H0943, (S)-N-(4-(2-amino-2-methylpropyl)phenyl)-4-(3-(1-(2,3-dichlorophenyl)ethyl)ureido) benzenesulfonamide], the “Metabolic Stability Study H = human” value [1] is reported as 10.6 µL/min/mg, the “Metabolic Stability Study R = rat” value [8] is reported as 11.7 µL/min/mg and the EC50 [4, 13] is reported as 2.5 nM. For the same compound, the IC50 [5, 14] was 7.8 nM, the “Metabolic Stability Study D = dog” value [9] was < 10 µL/min/mg and the “Metabolic Stability Study M = mouse” value [7] was < 10 µL/min/mg.
In the case of CC(C)(N)Cc1ccc(NS(=O)(=O)c2ccc(NC(=O)NCc3ccccc3)cc2)cc1.Cl [H0993, N-(4-(2-amino-2-methylpropyl)phenyl)-4-(3-benzylureido) benzenesulfonamide], the “Metabolic Stability Study H = human” value [1] is reported as 18.5 µL/min/mg, the “Metabolic Stability Study R = rat” value [8] is reported as 15.1 µL/min/mg and the “PK F” value [10] is reported as 0.4%. For the same compound, the “PK CLiv” value ([10]; i.v.) was 2.15 L/h/kg, the “PK Vdiv” value ([10]; i.v.) was 4.31 L/kg and the “PK t1/2iv” value ([10]; i.v.) was 1.39 h. The “PK CLpo” value ([10]; p.o.) was 438.1 L/h/kg, the “PK Vdpo” value ([10]; p.o.) was 2550 L/kg and the “PK t1/2po” value ([10]; p.o.) was 4.03 h. For the same compound, the EC50 [4, 13] was 21 nM, the IC50 [5, 14] was 288 nM and the “Metabolic Stability Study D = dog” value [9] was < 10 µL/min/mg. For the same compound, the “Metabolic Stability Study M = mouse” value [7] was 14.3 µL/min/mg.
With COc1cc(S(=O)(=O)Cc2ccc3c(c2)CNC3)ccc1NC(=O)NC(C)c1ccccc1.Cl (centres unmarked) [H1383, 1-(4-((isoindolin-5-ylmethyl)sulfonyl)-2-methoxyphenyl)-3-(1-phenylethyl)urea] the “Metabolic Stability Study H = human” value [1] was 21 µL/min/mg, the EC50 [3] was > 30 µM and the “Metabolic Stability Study R = rat” value [8] was 48.2 µL/min/mg. For the same compound, the EC50 [4, 11] was 2.01 nM, the IC50 [5, 12] was 11.9 nM and the “Metabolic Stability Study D = dog” value [9] was 27.8 µL/min/mg. For the same compound, the “Metabolic Stability Study M = mouse” value [7] was 91.9 µL/min/mg.
With CN(C)C(C)(C)Cc1ccc(NS(=O)(=O)c2ccc(NC(=O)NCc3cccc(Cl)c3Cl)cc2)cc1 [H0995, 4-(3-(2,3-dichlorobenzyl)ureido)-N-(4-(2-(dimethylamino)-2-methylpropyl)phenyl) benzenesulfonamide] the “Metabolic Stability Study H = human” value [1] was 54.5 µL/min/mg, the “Metabolic Stability Study R = rat” value [8] was 92.4 µL/min/mg and the EC50 [4, 13] was 2.52 nM. The IC50 [5, 14] was 32.1 nM, the “Metabolic Stability Study D = dog” value [9] was 52.7 µL/min/mg and the “Metabolic Stability Study M = mouse” value [7] was 194.6 µL/min/mg.
